Measured values as given in patent US11459318B2, “Pesticidally active pyrrole derivatives” (Syngenta Participations AG, priority 2017, dated 2022).

Columns and labels:
Format in all cases: in vivo
[1] = tested on: Myzus persicae (Green peach aphid); experiment: Myzus persicae (Green peach aphid): Feeding/Contact activity; settings: foliar, 144 h, application rate of 200 ppm, aphid population of mixed ages on sunflower leaf discs, assessed 6 days after infestation, read-out: control (mortality)
Method: Myzus persicae (Green peach aphid): Feeding/Contact activity Sunflower leaf discs were placed onto agar in a 24-well microtiter plate and sprayed with aqueous test solutions prepared from 10,000 ppm DMSO stock solutions. After drying, the leaf discs were infested with an aphid population of mixed ages. The samples were assessed for mortality 6 days after infestation.

[2] = tested on: Thrips tabaci (Onion Thrips); experiment: Thrips tabaci (Onion Thrips): Feeding/Contact activity; settings: foliar, 144 h, application rate of 200 ppm, thrips population of mixed ages on sunflower leaf discs, assessed 6 days after infestation, read-out: control (mortality)
Method: Thrips tabaci (Onion Thrips): Feeding/Contact activity
Sunflower leaf discs were placed on agar in 24-well microtiter plates and sprayed with aqueous test solutions prepared from 10,000 ppm DMSO stock solutions. After drying the leaf discs were infested with a thrips population of mixed ages. The samples were assessed for mortality 6 days after infestation.

[3] = tested on: Plutella xylostella (Diamond back moth); experiment: Plutella xylostella (Diamond back moth): Feeding/contact activity; settings: 120 h, application rate of 200 ppm, L2 larvae on artificial diet, assessed 5 days after infestation, read-out: control (mortality)
Method: Plutella xylostella (Diamond back moth): Feeding/contact activity
24-well microtiter plates with artificial diet were treated with aqueous test solutions prepared from 10,000 ppm DMSO stock solutions by pipetting. After drying, the plates were infested with L2 larvae (10 to 15 per well). The samples were assessed for mortality 5 days after infestation.

[4] = tested on: Diabrotica balteata (Corn root worm); experiment: Diabrotica balteata (Corn root worm), maize sprouts sprayed, L2 larvae mortality; settings: 96 h, application rate of 200 ppm, L2 larvae on maize sprouts, assessed 4 days after infestation, read-out: control (mortality)
Method: Diabrotica balteata (Corn root worm):
Maize sprouts placed onto an agar layer in 24-well microtiter plates were treated with aqueous test solutions prepared from 10,000 ppm DMSO stock solutions by spraying. After drying, the plates were infested with L2 larvae (6 to 10 per well). The samples were assessed for mortality 4 days after infestation.

[5] = tested on: Tetranychus urticae (Two-spotted spider mite); experiment: Tetranychus urticae (Two-spotted spider mite): Feeding/contact activity; settings: foliar, 192 h, application rate of 200 ppm, mite population of mixed ages (mobile stages) on bean leaf discs, assessed 8 days after infestation, read-out: control (mortality)
Method: Tetranychus urticae (Two-spotted spider mite): Feeding/contact activity
Bean leaf discs on agar in 24-well microtiter plates were sprayed with aqueous test solutions prepared from 10,000 ppm DMSO stock solutions. After drying the leaf discs were infested with a mite population of mixed ages. The samples were assessed for mortality on mixed population (mobile stages) 8 days after infestation.

[6] = tested on: Euschistus heros (Neotropical Brown Stink Bug); experiment: Euschistus heros (Neotropical Brown Stink Bug): Feeding/contact activity; settings: 120 h, application rate of 200 ppm, N2 nymphs on soybean leaves, assessed 5 days after infestation, read-out: control (mortality)
Method: Euschistus heros (Neotropical Brown Stink Bug): Feeding/contact activity Soybean leaves on agar in 24-well microtiter plates were sprayed with aqueous test solutions prepared from 10,000 ppm DMSO stock solutions. After drying the leaves were infested with N2 nymphs. The samples were assessed for mortality 5 days after infestation.

[7] = tested on: Spodoptera littoralis (Egyptian cotton leaf worm); experiment: Spodoptera littoralis (Egyptian cotton leaf worm): Feeding/contact activity; settings: foliar, 72 h, application rate of 200 ppm, L1 larvae on cotton leaf discs, assessed 3 days after infestation, read-out: control (mortality)
Method: Spodoptera littoralis (Egyptian cotton leaf worm): Feeding/contact activity Cotton leaf discs were placed onto agar in 24-well microtiter plates and sprayed with aqueous test solutions prepared from 10,000 ppm DMSO stock solutions. After drying the leaf discs were infested with five L1 larvae. The samples were assessed for mortality 3 days after infestation.

Measured: mortality at 200 ppm

CC(C)(C)n1c(C(F)(C(F)(F)F)C(F)(F)F)cc(Br)c1-n1cc(-c2ccc(Cl)c(C(=O)NC3(C#N)CC3)c2)cn1 [Compound 25, 5-[1-[3-bromo-1-tert-butyl-5-[1,2,2,2-tetrafluoro-1-(trifluoromethyl)ethyl]pyrrol-2-yl]pyrazol-4-yl]-2-chloro-N-(1-cyanocyclopropyl)benzamide]
≥ 80%: all assays above

N#CC1(NC(=O)c2cc(-c3cnn(-c4c(Br)cc(C(F)(C(F)(F)F)C(F)(F)F)n4CC(F)(F)F)c3)ccc2Cl)CC1 [Compound 26, 5-[1-[3-bromo-5-[1,2,2,2-tetrafluoro-1-(trifluoromethyl)ethyl]-1-(2,2,2-trifluoroethyl)pyrrol-2-yl]pyrazol-4-yl]-2-chloro-N-(1-cyanocyclopropyl)benzamide]
≥ 80%: all assays above

Cn1c(C(F)(C(F)(F)F)C(F)(F)C(F)(F)F)cc(Br)c1-n1cc(-c2ccc(Cl)c(C(=O)NC3(C#N)CC3)c2)cn1 (stereo not drawn) [Compound 27, 5-[1-[3-bromo-5-[1,2,2,3,3,3-hexafluoro-1-(trifluoromethyl)propyl]-1-methyl-pyrrol-2-yl]pyrazol-4-yl]-2-chloro-N-(1-cyanocyclopropyl)benzamide]
≥ 80%: all assays above

Cn1c(-n2cc(-c3ccc(Cl)c(C(=O)NC4(C#N)CC4)c3)cn2)ccc1C(F)(C(F)(F)F)C(F)(F)C(F)(F)F (stereo not drawn) [Compound 28, 2-chloro-N-(1-cyanocyclopropyl)-5-[1-[5-[1,2,2,3,3,3-hexafluoro-1-(trifluoromethyl)propyl]-1-methyl-pyrrol-2-yl]pyrazol-4-yl]benzamide]
≥ 80%: all assays above

N#CC1(NC(=O)c2cc(-c3cnn(-c4c(Cl)cc(C(F)(C(F)(F)F)C(F)(F)F)n4CF)c3)ccc2Cl)CC1 [Compound 29, 2-chloro-5-[1-[3-chloro-1-(fluoromethyl)-5-[1,2,2,2-tetrafluoro-1-(trifluoromethyl)ethyl]pyrrol-2-yl]pyrazol-4-yl]-N-(1-cyanocyclopropyl)benzamide]
≥ 80%: all assays above

N#CC1(NC(=O)c2cc(-c3cnn(-c4c(Br)cc(C(F)(C(F)(F)F)C(F)(F)F)n4C4CC4)c3)ccc2Cl)CC1 [Compound 42, 5-[1-[3-bromo-1-cyclopropyl-5-[1,2,2,2-tetrafluoro-1-(trifluoromethyl)ethyl]pyrrol-2-yl]pyrazol-4-yl]-2-chloro-N-(1-cyanocyclopropyl)benzamide]
≥ 80%: all assays above
